From patent EP0847397B1, “WATER-SOLUBLE C-RING ANALOGUES OF 20 (S)-CAMPTOTHECIN” (DR. REDDY'S RESEARCH FOUNDATION, priority 1996, dated 1997) come the findings set out here.

Converted amounts (≈) assume the structure as drawn.

In one data set the test system is HCT 15. The experiment in a line: NCI in vitro 60 human tumor cell line assay. To be noted: HCT-15, 48 h, read-out: Total Growth Inhibition (TGI). The format is cell-based.
Another data set has as its system H 460. The experiment in a line: NCI in vitro 60 human tumor cell line assay. It counts as cell-based. To be noted: Homo sapiens, NCI-H460, 48 h, read-out: Total Growth Inhibition (TGI).
A short description of data set [1]: MTD in Swiss albino mice (single dose). The note with it: mouse, in vivo, 14 days observation. On the procedure:
1. MTD in Swiss albino mice:
Each Swiss Albino mouse is injected with a single does of the test compound on a day designated as Day 1: Doses that were tested are 400, 200, 100, 50, 25, 12.5, 8.3, 6.25 and 3.13 mg/kg body weight. […] (As per the protocol followed by the U.S. National Cancer Institute)

In the next data set the test system is UACC-62. In words: In vitro activity after 1 hour exposure (Sulforhodamine B). The note with it: Homo sapiens; UACC-62, 1 hour exposure then 48 hours drug-free. It counts as cell-based. On the procedure: (§1) 6. In vitro activity after 1 hour exposure:
(§2) Grow the cells in 15 ml of Complete Medium (RPM1-1640 with 10% Fetal bovine serum and 0.2% NaHCO3) for 3-5 days to obtain a cell number of 10^6 cells/flask. The medium is removed and the attached cells are washed with Phosphate Buffered Saline (PBS). 1 ml of 0.1% Trypsin-EDTA is added and incubated for 5 min at 37°C. Tap the flasks gently and add 5 ml of complete medium. Remove cell suspension and centrifuge at 2000 rpm for 5 min. Discard the supernatant and suspend the pellet in 5 ml of complete medium. Count the cell number in a haemocytometer. Dilute the cell suspension to 10,000 cells/100 µl in complete medium. Plate out 100 µl of cell suspension in each of 96 well microtitre plate and incubate for 24 hrs at 37°C. and 5% CO2. Terminate the reference blank (plated out separately) with 25 µl of 50% cold Trichloroacetic acid (TCA). Incubate for 1 hour at 4°C. Wash the plate (five times) with deionized water. Air dry and preserve the plate at 4°C. for determination of T0 value. Prepare suitable dilution of the test compound in complete medium and add 100 µl to each well to maintain the final concentration ranging between 10^-4M and 10^-8M. Incubate for 1 hr at 37°C. and 5% CO2. Centrifuge the microtitre plate at 1000 rpm for 5 min. Remove the supernatant. Wash the cells twice with 100 µl of PBS to remove the traces of test compound. Add 200 µl of complete medium to each well and incubate for 48 hours at 37°C. and 5% CO2. Terminate the cell growth with the addition of 50 µl of 50% cold TCA. Incubate the plate for 1 hr at 4°C. Wash the plates with deionized water (five times) and air dry. Add 100 µl of Sulforhodamine B solution (0.4% in 1% acetic acid) to each well. Keep at room temperature for 15 minutes. Wash (five times) with 1% acetic acid and air dry. Add 100 µl of 10mM Trizma base (Sigma), shake gently on plate shaker for 15 minutes and read the optical density at 490 nm in Spectrophotometric plate reader. (as per the protocol followed by the U.S. National Cancer Institute.

The test system of a further data set is SF-268. Described as above. The format is cell-based. To be noted: Homo sapiens. On the procedure:
as §1, §2

The test system of a further data set is MCF-7/ADR. The description is as above. The format is cell-based. The note with it: Homo sapiens, NCI/ADR-RES, 1 hour exposure then 48 hours drug-free. On the procedure:
as §1, §2

A further data set relates to OVCAR-8. Described as above. The format is cell-based. The note with it: Homo sapiens; OVCAR-8, 1 hour exposure then 48 hours drug-free. On the procedure:
as §1, §2

The subject of the next data set is HOP-62. Described as above. The format is cell-based. To be noted: Homo sapiens; HOP-62, 1 hour exposure then 48 hours drug-free. How it is done: as §1, §2
In another data set the test system is ACHN. Described as above. The format is cell-based. The note with it: Homo sapiens, 1 hour exposure then 48 hours drug-free. How it is done: as §1, §2
In a further data set the test system is DU-145. Described as above. The format is cell-based. To be noted: Homo sapiens; DU-145, 1 hour exposure then 48 hours drug-free. On the procedure: as §1, §2
The subject of the next data set is HCT 116. The experiment in a line: NCI in vitro 60 human tumor cell line assay. The format is cell-based. To be noted: HCT-116, 48 h, read-out: Total Growth Inhibition (TGI).
Data set [2] is described as follows: Solubility by routine method. The format is physicochemical. To be noted: deionized water, 37°C. How it is done: 5. Solubility by routine method:
Compound was suspended in 5 ml of deionized water and heated to 37°C. for 10 min. Then, the solution was filtered and the filtrate was evaporated to drying using methanol and the solid residue was weighed.

The subject of a further data set is HCC 2998. In words: NCI in vitro 60 human tumor cell line assay. The format is cell-based. To be noted: Homo sapiens, HCC 2998, 48 h, read-out: Total Growth Inhibition (TGI).
The next data set can be described thus: Pharmacokinetics at MTD. It counts as in vivo, Swiss albino mice. To be noted: mouse, ip, intraperitoneal, plasma; for AUC(0-t): DMSO:water (50:50), read-out: AUC0-1. How it is done:
3. Pharmacokinetics at MTD:
All studies were carried out in Swiss albino mice in the weight range 35-40 g. The animals were fasted overnight prior to dosage of the drug and were fed 3 hours after dosing. The animals were dosed intraperitonially as a solution in DMSO:water (50:50; v/v). Blood samples were drawn from orbital sinus at 1, 2, 4, 6 and 8 hours after administration of the dose into heparinized tubes, centrifuged at 13000 RPM for 10 min. Plasma samples were separated and analyzed by HPLC. To 50 µl of the sample, 100 µl of chilled acidified methanol was added and mixed to precipitate proteins. The sample was centrifuged at 13,000 RPM for 10 min. 100 µl of supernatant was made up to 200 µl with methanol:water (50:50; v/v) and 100 µl was injected on HPLC. Peak area of the drug was used for quantification. Calibration, control and recovery samples were prepared by spiking 50 µl of blank plasma with known amounts of the drug and processed in the same manner as the samples. (J. Natl. Cancer Inst., 1996; 88:817-824).

The nature of data set [3]: Solubility by HPLC method. It counts as physicochemical. To be noted: aqueous buffer, 0.1M sodium acetate buffer pH 5.0, 24 hours, room temperature. How it is done:
4. Solubility by HPLC method:
Excess of compound was soaked in 0.5 ml of 0.1M sodium acetate buffer at pH 5.0 for 24 hours at room temperature. The solution was filtered through 0.45 micron PVDF syringe filter (Gelman Sciences). The filtrate was injected into HPLC at different volumes (10 & 20 µl). Chromatograms were recorded. Responses recorded were extrapolated from the calibration curve and the solubility of the compound was calculated. (J. Med. Chem., 1995; 38: 400)

A further data set relates to HT 29. In words: NCI in vitro 60 human tumor cell line assay. The format is cell-based. The note with it: Homo sapiens, HT-29, 48 h, read-out: Total Growth Inhibition (TGI).

Method for H 460: (§3) Each test compound was screened against a battery of 60 human cell lines obtained from eight organs. In a typical procedure, the cell suspensions that were diluted according to the particular cell type and the expected target cell density (5000-40,000 cells per well based on cell growth characteristics) were added into 96-well microtiter plates. Inoculates were allowed a preincubation period of 24h at 37°C. for stabilization. Dilutions at twice the intended test concentrations were added at time zero in 100-µl aliquots to microtiter plate wells. Usually test compounds were evaluated at five 10-fold dilutions. The highest well concentration used in the test is 10^-4M. The cells are then incubated in the presence of drug (the test compound) for further 48h in 5% CO2 atmosphere and 100% humidity. At the end of this time, the adherent cells are fixed to the plate by means of trichloroacetic acid, and after a number of washes, the cell layer is treated with the protein stain Sulforhodamine B. The optical density which is proportional to protein mass, is then read by automated spectrophotometric plate readers at a wavelength of 515 nm. Readings are transferred to a microcomputer and final reports are generated using especially developed software.
Method for HCC 2998: as §3
Method for HCT 15: as §3
Method for HT 29: as §3

In general, GI50 refers to the concentration giving 50% growth inhibition. One may read the solubility as how much of the substance goes into solution per volume. Lower therefore signals a poorly soluble substance. In general, Cmax refers to the highest concentration seen after dosing. A word on the Tmax: it is the time from dosing to the highest level. A word on the half-life: it is how long it takes for the measured level to halve. The low end stands for fast loss, the high end for slow loss. Take `CC[C@@]1(O)C(=O)OCc2c1cc1n(c2=O)C(OCC(F)(F)F)c2cc3cc(O)ccc3nc2-1` (some centres unmarked) [Example 27, 10-Hydroxy-5-trifluoroethoxycamptothecin]: the IC (TGI) in the data set on HCT 15 amounted to 20 µM; in the data set on H 460 it was 5.09 µM; in the data set on HCT 116, 4.06 µM; with HCC 2998 it was 7.67 µM; with HT 29 it was 2.41 µM. Also, the MTD at 336 h in data set [1] (intravenous) stood at 200 mg/kg; in data set [1] (ip, intraperitoneal), 400 mg/kg. Also, the GI50 in the data set with UACC-62 was 9 µM; with SF-268, greater than 100 µM; in the data set with MCF-7/ADR, 60 µM; with OVCAR-8, 75 µM; with HOP-62 it was 2 µM; in the data set with ACHN, 8 µM. The GI50 in the data set on DU-145 was 0.35 µM. The solubility at 10 min in data set [2] lay within 2000 to 3000 µg/mL (≈ 4.33 to 6.49 mM). Further, the AUC(0-t) in “Pharmacokinetics at MTD” stood at 23.1 ± 2.7 µM·h. In the data set “Pharmacokinetics at MTD”, the Cmax is 7.4 ± 0.8 µM. The Tmax in “Pharmacokinetics at MTD” stood at 1.33 ± 0.6 h. Further, the half-life in the data set “Pharmacokinetics at MTD” is 2.38 ± 0.2 h. Further, the k el in the data set “Pharmacokinetics at MTD” is 8.06e-05 s⁻¹. Moreover, the solubility at 24 h in data set [3] amounted to 500 µg/mL (≈ 1.08 mM).

On to `CC[C@@]1(O)C(=O)OCc2c1cc1n(c2=O)C(OCCO)c2cc3ccccc3nc2-1` (some centres unmarked) [Example 26, 5-(2'-Hydroxyethoxy)camptothecin], for which the IC (TGI) amounted to 36.3 µM in the data set on HCT 15, 1 µM in the data set on H 460, 10.5 µM with HCC 2998 and 46 µM with HT 29. Moreover, the MTD at 336 h in [1] (intravenous) is 25 to 50 mg/kg; in [1] (ip, intraperitoneal), 200 mg/kg. Moreover, the GI50 in the data set on UACC-62 is 0.075 µM; in the data set on SF-268 it was greater than 100 µM; in the data set on MCF-7/ADR, greater than 100 µM; in the data set with OVCAR-8, greater than 100 µM; in the data set on HOP-62 it was greater than 100 µM; in the data set on ACHN it was greater than 100 µM. Further, halving of growth in the data set with DU-145 (GI50) required 50 µM. In [2], the solubility at 10 min stood at 6000 µg/mL (≈ 14.7 mM). The AUC(0-t) in “Pharmacokinetics at MTD” came out at 562 ± 41.8 µM·h. The compound also showed a Cmax in the data set “Pharmacokinetics at MTD” of 264 ± 21.9 µM. Further, the Tmax in “Pharmacokinetics at MTD” stood at 1 h. The half-life in the data set “Pharmacokinetics at MTD” is 1.84 ± 0.3 h. This compound gave a k el in “Pharmacokinetics at MTD” of 0.000106 s⁻¹. The compound further displayed a solubility at 24 h in [3] of 800 µg/mL (≈ 1.96 mM).
